EP4631502A1 (Nicoventures Trading Limited, priority 2024, dated 2025)

Legend:
Adenosine A1 receptor = Adenosine A1 receptor (Rattus norvegicus, UniProt P25099); conditions: read-out: IC50 Mean (footnote: Literature value determined in rat), Ji et al., J Med. Chem. 39, 781-788 (1996); cited from earlier work
[1] = biological target: T1, Human adenosine A1 receptors (Homo sapiens, UniProt P30542); assay: biochemical; conditions: [3H]-DPCPX 1 nM, 60 min, 27°C
T1 sequence (P30542 1-326): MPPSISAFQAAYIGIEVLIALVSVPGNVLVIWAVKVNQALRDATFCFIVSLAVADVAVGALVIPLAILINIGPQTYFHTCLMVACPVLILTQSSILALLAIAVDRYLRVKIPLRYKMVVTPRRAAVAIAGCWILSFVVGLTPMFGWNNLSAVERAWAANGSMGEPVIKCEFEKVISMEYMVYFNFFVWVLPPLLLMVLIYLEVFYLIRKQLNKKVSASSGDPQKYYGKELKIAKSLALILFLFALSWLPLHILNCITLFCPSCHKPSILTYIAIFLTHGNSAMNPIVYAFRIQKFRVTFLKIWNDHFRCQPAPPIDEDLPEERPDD
Description: Binding experiments were performed according to the data sheet provided by the supplier of the receptor (Perkin Elmer) with modifications:
Approximately 2.4-3 µg protein-containing membranes were incubated for 60 min in a total volume of 100 µL at 27°C: assay buffer:
Test compound data are presented as specific radioligand binding to the receptor.
(§1) In case of ill-defined curves or algorithm-generated minima below the defined non-specific binding, the IC50 value was determined by graphical extrapolation.

[2] = biological target: human adenosine A2A receptors (Homo sapiens, UniProt P29274); assay: Adenosine A2A receptor radioligand binding assay ([125I]-ZM241385 competition, membranes of HEK293 cells)
Chain of human adenosine A2A receptors (P29274 whole entry): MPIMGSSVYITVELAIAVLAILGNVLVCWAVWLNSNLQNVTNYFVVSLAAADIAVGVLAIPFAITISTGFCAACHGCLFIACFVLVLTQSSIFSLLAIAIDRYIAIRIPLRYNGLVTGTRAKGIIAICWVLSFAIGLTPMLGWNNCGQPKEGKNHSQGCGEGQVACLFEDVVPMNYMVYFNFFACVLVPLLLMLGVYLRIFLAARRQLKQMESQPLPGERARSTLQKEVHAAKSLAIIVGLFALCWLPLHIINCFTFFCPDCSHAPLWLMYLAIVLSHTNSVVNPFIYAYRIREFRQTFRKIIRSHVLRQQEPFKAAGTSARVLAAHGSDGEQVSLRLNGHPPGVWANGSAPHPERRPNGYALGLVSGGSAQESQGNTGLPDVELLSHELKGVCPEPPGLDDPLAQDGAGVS
Description: Approximately 0.4-0.9 µg protein-containing membranes were incubated for 60 min in a total volume of 100 µL at 37°C. assay buffer:
Test compound data are presented as specific radioligand binding to the receptor. Specific binding is defined as the difference between the total binding and the non-specific binding determined in the presence of the reference compound as detailed in the previous sections.
as §1

Chain of Adenosine A1 receptor (P25099 whole entry): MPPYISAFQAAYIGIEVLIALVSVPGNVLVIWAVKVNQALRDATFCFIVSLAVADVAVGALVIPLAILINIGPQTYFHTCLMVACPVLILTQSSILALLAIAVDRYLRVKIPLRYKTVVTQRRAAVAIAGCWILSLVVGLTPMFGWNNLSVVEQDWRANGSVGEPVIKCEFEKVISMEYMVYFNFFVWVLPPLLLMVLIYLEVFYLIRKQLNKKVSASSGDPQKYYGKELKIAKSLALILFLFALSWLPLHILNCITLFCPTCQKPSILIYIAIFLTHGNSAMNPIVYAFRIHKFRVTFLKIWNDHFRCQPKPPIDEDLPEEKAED

IC50 ([1]; IC50 1.M, first measurement): 617000 nM
IC50 ([1]; IC50 2.M, second measurement): 122000 nM
IC50 ([2]; IC50 1.M, first measurement, [125I]-ZM241385 20000 cpm, 60 min, 37°C): 1300 nM
IC50 ([2]; IC50 2.M, second measurement, [125I]-ZM241385 20000 cpm, 60 min, 37°C): 2100 nM
IC50 ([2]; IC50 Mean, mean of 1.M and 2.M): 1700 nM
Compound: COc1cc2oc(-c3ccc(O)cc3)cc(=O)c2c(O)c1OC [Cirsimaritin]
IC50 (Adenosine A1 receptor): 1200 nM
